Reference: patent US11511095B2, “Portable transdermal administration patch apparatus and preparation method thereof” (CHANGZHOU HUALIAN HEALTH DRESSING LTD., priority 2017, dated 2022)

Assay: Simulation experiment of in vitro transdermal drug delivery in pig skin (Franz diffusion cell)
Format: in vitro ADME
Conditions: 37° C.
Description: Simulation experiment of in vitro transdermal drug delivery in pig skin:
(1) pig skin with a thickness of 300-500 μm and an area of 1.0 cm^2 was selected and placed between the Franz diffusion cell supply cell and the Franz diffusion cell receiving cell. An […] side of the pig skin was oriented toward the supply cell, and then the patch apparatus was placed in the supply cell and was attached to the epidermis of the pig skin. The receiving cell was filled with phosphate buffered saline to simulate blood circulation, and the temperature in the receiving cell was maintained at 37° C. to simulate human body temperature.
(2) Set the electric quantity: 0.1 mA, the conduction time is 24 hours as desired. Press a power switch of the patch apparatus.

[1] = this method/apparatus, quantity of electric charge 2.4 mA * hour (0.1 mA, 24 hours)
[2] = traditional patch, quantity of electric charge 0 mA * hour, 24 hours

Administration dosage (μg/cm^2 skin area contacted by the drug formulation) [1]: 53.2 μg/cm^2 | Administration speed [1]: 1.8 μg/(cm^2 * h) | Administration dosage (μg/cm^2 skin area contacted by the drug formulation) [2]: 1.2 μg/cm^2 | Administration speed [2]: 0.1 μg/(cm^2 * h)
Compound: Cc1nccn1CC1CCc2c(c3ccccc3n2C)C1=O (stereo not shown) [ondansetron]
